Data on 22 compounds can be found in patent US12319672B2, “Alpha-D-galactopyranoside derivatives” (Idorsia Pharmaceuticals Ltd, priority 2019, dated 2025).

Some results are limits rather than exact numbers.

Experiment [1] deals with human Gal-3 (hGal-3) (Homo sapiens (Human), UniProt P17931). Kind of experiment: Competitive binding assay: binding of biotinylated hGal-3 to microplate-adsorbed asialofetuin (ASF). Conditions: Activity on hGal-3; mean values of several measurements. The protocol: (§1) Evaluation of Compound Inhibitory Activity (IC50)
human Gal-3 (hGal-3), sequence (P17931 whole entry): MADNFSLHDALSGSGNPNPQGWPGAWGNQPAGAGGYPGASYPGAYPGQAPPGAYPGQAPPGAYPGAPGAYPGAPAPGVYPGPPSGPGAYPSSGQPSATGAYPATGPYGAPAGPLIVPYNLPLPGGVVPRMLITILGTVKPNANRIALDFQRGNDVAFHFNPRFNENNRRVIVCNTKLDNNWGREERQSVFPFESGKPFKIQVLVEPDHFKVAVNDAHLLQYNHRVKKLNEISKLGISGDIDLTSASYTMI
(§2) The inhibitory activity of compounds is determined in competitive binding assays. This spectrophotometric assay measures the binding of biotinylated human Gal-3 (hGal-3) or human Gal-1 (hGal-1), respectively, to a microplate-adsorbed glycoprotein, asialofetuin (ASF) (Proc Natl Acad Sci USA. 2013 Mar. 26; 110(13):5052-7.). Alternatively, and preferably, a human Gal-1 version in which all six cysteines are substituted by serines may be used.
(§3) Briefly, compounds are serially diluted in DMSO (working dilutions). ASF-coated 384 well plates are supplemented with 22.8 μL/well of biotinylated hGal-3 or hGal-1 in assay buffer (i.e. 300-1000 ng/mL biotinylated hGal-3 or hGal-1) to which 1.2 μL of compound working dilutions are added and mixed.
(§4) Plates are incubated for 3 hours at 4° C., then washed with cold assay buffer (3×50 uL), incubated for 1 hour with 25 μL/well of a streptavidin-peroxidase solution (diluted in assay buffer to 80 ng/mL) at 4° C., followed by further washing steps with assay buffer (3×50 uL). Finally, 25 μL/well of ABTS substrate is added.
(§5) The calculated IC50 values may fluctuate depending on the daily assay performance. Fluctuations of this kind are known to those skilled in the art. IC50 values from several measurements are given as mean values.

The target of experiment [2] is human Gal-1 (hGal-1). Kind of experiment: Competitive binding assay: binding of biotinylated hGal-1 to microplate-adsorbed asialofetuin (ASF). Conditions: Activities on hGal-1; mean values of several measurements. The protocol:
as §1, §2, §3, §4, §5

human Gal-1 (hGal-1), sequence (P09382 2-135 limits assumed): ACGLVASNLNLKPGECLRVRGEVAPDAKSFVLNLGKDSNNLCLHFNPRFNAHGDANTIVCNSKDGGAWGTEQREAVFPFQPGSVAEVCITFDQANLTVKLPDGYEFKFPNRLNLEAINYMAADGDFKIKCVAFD

On to `CO[C@@H]1[C@@H](n2cc(-c3cc(F)c(F)c(F)c3)nn2)[C@@H](O)[C@@H](CO)O[C@@H]1CC1CN(C2CCOCC2)C(=O)O1` (mixture of isomers) [Example 5.17, (RS)-5-(((2R,3R,4S,5R,6R)-5-hydroxy-6-(hydroxymethyl)-3-methoxy-4-(4-(3,4,5-trifluorophenyl)-1H-1,2,3-triazol-1-yl)tetrahydro-2H-pyran-2-yl)methyl)-3-(tetrahydro-2H-pyran-4-yl)oxazolidin-2-one], for which the results for the IC50 in experiment [1] and in experiment [2] were 190 nM and 9070 nM, respectively.
Taken in the same sequence, the figures for `CO[C@@H]1[C@@H](n2cc(-c3cc(F)c(F)c(F)c3)nn2)[C@@H](O)[C@@H](CO)O[C@@H]1CC1CN(C2CCN(S(=O)(=O)CC(C)C)CC2)C(=O)O1` (mixture of isomers) [Example 5.18, (RS)-5-(((2R,3R,4S,5R,6R)-5-hydroxy-6-(hydroxymethyl)-3-methoxy-4-(4-(3,4,5-trifluorophenyl)-1H-1,2,3-triazol-1-yl)tetrahydro-2H-pyran-2-yl)methyl)-3-(1-(isobutylsulfonyl)piperidin-4-yl)oxazolidin-2-one] were 35 nM and 640 nM.
Take `CO[C@@H]1[C@@H](n2cc(-c3cc(F)c(F)c(F)c3)nn2)[C@@H](O)[C@@H](CO)O[C@@H]1CC1CN(C2CCN(C(=O)CC(C)(C)C)CC2)C(=O)O1` (mixture of isomers) [Example 5.19, (RS)-3-(1-(3,3-dimethylbutanoyl)piperidin-4-yl)-5-(((2R,3R,4S,5R,6R)-5-hydroxy-6-(hydroxymethyl)-3-methoxy-4-(4-(3,4,5-trifluorophenyl)-1H-1,2,3-triazol-1-yl)tetrahydro-2H-pyran-2-yl)methyl)oxazolidin-2-one]: the IC50 came out at 100 nM in experiment [1] and 1370 nM in experiment [2].
With `CO[C@@H]1[C@@H](n2cc(-c3cc(F)c(F)c(F)c3)nn2)[C@@H](O)[C@@H](CO)O[C@@H]1CC1CN(C2CCN(S(=O)(=O)C(F)(F)F)CC2)C(=O)O1` (mixture of isomers) [Example 5.20, (RS)-5-(((2R,3R,4S,5R,6R)-5-hydroxy-6-(hydroxymethyl)-3-methoxy-4-(4-(3,4,5-trifluorophenyl)-1H-1,2,3-triazol-1-yl)tetrahydro-2H-pyran-2-yl)methyl)-3-(1-((trifluoromethyl)sulfonyl)piperidin-4-yl)oxazolidin-2-one], the figures for the IC50 in experiment [1] and in experiment [2] were 140 nM and 2310 nM, respectively.
As to `CO[C@@H]1[C@@H](n2cc(-c3cc(F)c(F)c(F)c3)nn2)[C@@H](O)[C@@H](CO)O[C@@H]1C[C@@H]1CN(C2CCN([S@+]([O-])C(C)(C)C)CC2)C(=O)O1` (mixture of isomers) [Example 5.21, (RS)-3-((RS)-1-(tert-butylsulfinyl)piperidin-4-yl)-5-(((2R,3R,4S,5R,6R)-5-hydroxy-6-(hydroxymethyl)-3-methoxy-4-(4-(3,4,5-trifluorophenyl)-1H-1,2,3-triazol-1-yl)tetrahydro-2H-pyran-2-yl)methyl)oxazolidin-2-one], the values for the IC50 in experiment [1] and in experiment [2] were 350 nM and 8680 nM, respectively.
For the compound `CO[C@@H]1[C@@H](n2cc(-c3cc(F)c(F)c(F)c3)nn2)[C@@H](O)[C@@H](CO)O[C@@H]1CC1CN(C2CCN(S(=O)(=O)C(C)(C)C)CC2)C(=O)O1` (mixture of isomers) [Example 5.22, (RS)-3-(1-(tert-butylsulfonyl)piperidin-4-yl)-5-(((2R,3R,4S,5R,6R)-5-hydroxy-6-(hydroxymethyl)-3-methoxy-4-(4-(3,4,5-trifluorophenyl)-1H-1,2,3-triazol-1-yl)tetrahydro-2H-pyran-2-yl)methyl)oxazolidin-2-one], the IC50 in experiment [1] stood at 67 nM; in experiment [2], 760 nM.
`CO[C@@H]1[C@@H](n2cc(-c3cc(F)c(F)c(F)c3)nn2)[C@@H](O)[C@@H](CO)O[C@@H]1CC1CN(C2CCCCC2)C(=O)O1` (mixture of isomers) [Example 5.23, (RS)-3-cyclohexyl-5-(((2R,3R,4S,5R,6R)-5-hydroxy-6-(hydroxymethyl)-3-methoxy-4-(4-(3,4,5-trifluorophenyl)-1H-1,2,3-triazol-1-yl)tetrahydro-2H-pyran-2-yl)methyl)oxazolidin-2-one]: the IC50 in experiment [1] stood at 140 nM; in experiment [2], 6740 nM.
With `CO[C@@H]1[C@@H](n2cc(-c3cc(F)c(F)c(F)c3)nn2)[C@@H](O)[C@@H](CO)O[C@@H]1CN1CC(C2CCN(C(=O)OC(C)(C)C)CC2)OC1=O` (mixture of isomers) [Example 5.24, tert-butyl 4-((RS)-3-(((2R,3R,4S,5R,6R)-5-hydroxy-6-(hydroxymethyl)-3-methoxy-4-(4-(3,4,5-trifluorophenyl)-1H-1,2,3-triazol-1-yl)tetrahydro-2H-pyran-2-yl)methyl)-2-oxooxazolidin-5-yl)piperidine-1-carboxylate], the IC50 turned out to be 290 nM in experiment [1] and 1810 nM in experiment [2].
As to `O=c1ccc(C2=NOC(C[C@H]3O[C@H](CO)[C@H](O)[C@H](n4cc(-c5cc(F)c(F)c(F)c5)nn4)[C@H]3O)C2)c[nH]1` (mixture of isomers) [Example 2.02], the figures for the IC50 in experiment [1] and in experiment [2] were 250 nM and 5080 nM, respectively.
For the compound `O=c1cc(C2=NOC(C[C@H]3O[C@H](CO)[C@H](O)[C@H](n4cc(-c5cc(F)c(F)c(F)c5)nn4)[C@H]3O)C2)cc[nH]1` (mixture of isomers) [Example 2.03], the IC50 in experiment [1] stood at 300 nM; in experiment [2], 550 nM.
For `CO[C@@H]1[C@@H](n2cc(-c3cc(F)c(F)c(F)c3)nn2)[C@@H](O)[C@@H](CO)O[C@@H]1CC1CC(c2cc[nH]c(=O)c2)=NO1` (mixture of isomers) [Example 2.06], the half-maximal inhibitory concentration (IC50) in experiment [1] was determined as 240 nM; in experiment [2], 260 nM.
Take `CO[C@@H]1[C@@H](n2cc(-c3cc(F)c(F)c(F)c3)nn2)[C@@H](O)[C@@H](CO)O[C@@H]1Cc1cc(C2CCN(C(C)=O)C2)on1` (mixture of isomers) [Example 2.09]: the IC50 in experiment [1] amounted to 660 nM; in experiment [2] it was 8380 nM.
Consider `CO[C@@H]1[C@@H](n2cc(-c3cc(F)c(F)c(F)c3)nn2)[C@@H](O)[C@@H](CO)O[C@@H]1Cc1cc(C2(O)CCCN(C(C)=O)CC2)on1` (mixture of isomers) [Example 2.10], for which the figures for the IC50 in experiment [1] and in experiment [2] were 450 nM and 4470 nM, respectively.
On to `CC(=O)O[C@@H]1[C@@H](n2cc(-c3cc(F)c(F)c(F)c3)nn2)[C@@H](O)[C@@H](CO)O[C@@H]1CC1CC(C2CCNCC2)=NO1` (mixture of isomers) [Example 3.14, (2R,3R,4S,5R,6R)-5-hydroxy-6-(hydroxymethyl)-2-(((RS)-3-(piperidin-4-yl)-4,5-dihydroisoxazol-5-yl)methyl)-4-(4-(3,4,5-trifluorophenyl)-1H-1,2,3-triazol-1-yl)tetrahydro-2H-pyran-3-yl acetate], for which the IC50 in experiment [1] worked out at 320 nM; in experiment [2] it was 6840 nM.
For the compound `COC1CCC(N2C[C@@H](C[C@H]3O[C@H](CO)[C@H](O)[C@H](n4cc(-c5cc(F)c(F)c(F)c5)nn4)[C@H]3OC)OC2=O)CC1` (mixture of isomers) [Example 5.25, (RS)-5-(((2R,3R,4S,5R,6R)-5-hydroxy-6-(hydroxymethyl)-3-methoxy-4-(4-(3,4,5-trifluorophenyl)-1H-1,2,3-triazol-1-yl)tetrahydro-2H-pyran-2-yl)methyl)-3-((1r,4R)-4-methoxycyclohexyl)oxazolidin-2-one], the IC50 in experiment [1] came out at 740 nM; in experiment [2], 12700 nM.
Taken in the same sequence, the figures for `COC1CCC(N2C[C@H](C[C@H]3O[C@H](CO)[C@H](O)[C@H](n4cc(-c5cc(F)c(F)c(F)c5)nn4)[C@H]3OC)OC2=O)CC1` (mixture of isomers) [Example 5.26, (RS)-5-(((2R,3R,4S,5R,6R)-5-hydroxy-6-(hydroxymethyl)-3-methoxy-4-(4-(3,4,5-trifluorophenyl)-1H-1,2,3-triazol-1-yl)tetrahydro-2H-pyran-2-yl)methyl)-3-((1s,4S)-4-methoxycyclohexyl)oxazolidin-2-one] were 1240 nM and 11800 nM.
Regarding `COc1ccc(C2=NOC(C[C@H]3O[C@H](CO)[C@H](O)[C@H](n4cc(-c5cc(F)c(F)c(F)c5)nn4)[C@H]3O)C2)cc1` (some centres unmarked) [Ex 1.02], the IC50 in experiment [1] was found to be 490 nM; in experiment [2], 53900 nM.
Take `COc1ccc(C2=NO[C@H](C[C@H]3O[C@H](CO)[C@H](O)[C@H](n4cc(-c5cc(F)c(F)c(F)c5)nn4)[C@H]3O)C2)cc1` [Ex 1.03]: the figures for the IC50 in experiment [1] and in experiment [2] were 310 nM and 5450 nM, respectively.
As for `COc1ccc(C2=NO[C@@H](C[C@H]3O[C@H](CO)[C@H](O)[C@H](n4cc(-c5cc(F)c(F)c(F)c5)nn4)[C@H]3O)C2)cc1` [Ex 1.04], the values for the IC50 in experiment [1] and in experiment [2] were 580 nM and greater than 100000 nM, respectively.
As for `OC[C@H]1O[C@H](CC2CC(C3CCCCC3)=NO2)[C@H](O)[C@@H](n2cc(-c3cc(F)c(F)c(F)c3)nn2)[C@H]1O` (some centres unmarked) [Ex 1.05], the IC50 amounted to 480 nM in experiment [1] and 7180 nM in experiment [2].
As for `OC[C@H]1O[C@H](C[C@H]2CC(C3CCCCC3)=NO2)[C@H](O)[C@@H](n2cc(-c3cc(F)c(F)c(F)c3)nn2)[C@H]1O` [Ex 1.06], the IC50 in experiment [1] was 1800 nM; in experiment [2] it was 22200 nM.
With `OC[C@H]1O[C@H](C[C@@H]2CC(C3CCCCC3)=NO2)[C@H](O)[C@@H](n2cc(-c3cc(F)c(F)c(F)c3)nn2)[C@H]1O` [Ex 1.07], the 50% inhibitory concentration (IC50) in experiment [1] came to 520 nM; in experiment [2], 4900 nM.
